In patent US20080200531A1, “CDKI pathway inhibitors as inhibitors of tumor cell growth” (priority 2006, published 2008):

Key:
CDK1/cyclinB (h) = target: T1, CDK1/cyclinB (h) (Homo sapiens, UniProt P06493); assay: Cyclin/CDK kinase assay (Upstate), CDK1/cyclinB; assay type: biochemical; conditions: 100 μM, re-tested at 20 and 40 μM (SNX9, SNX2) or 10 and 20 μM (SNX9-1, SNX14)
T1 construct: purchased Upstate Biotechnology, Inc
Experimental: (§1) To test the above hypothesis, we determined whether several CDKI pathway inhibitors, including two SNX9 class compounds (SNX9 and SNX9-1), two compounds of a different structural class (SNX14 and SNX2) and another unrelated inhibitor (SNX35), inhibit the kinase activity of different complexes formed in vitro by purified cyclin/CDK complexes. This analysis was carried out as a service by Upstate Biotechnology, Inc.
(§2) In a final reaction volume of 25 μl, CDK1/cyclinB (h) (5-10 μU) is incubated with 8 mM MOPS pH 7.0, 0.2 mM EDTA, 0.1 mg/ml histone H1, 10 mM MgAcetate and [γ-33P-ATP] (specific activity approx. 500 cpm/pmol, 45 μM concentration). The reaction is initiated by the addition of the MgATP mix. After incubation for 40 minutes at room temperature, the reaction is stopped by the addition of 5 μl of a 3% phosphoric acid solution. 10 μl of the reaction is then spotted onto a P30 filtermat and washed three times for 5 minutes in 75 mM phosphoric acid and once in methanol prior to drying and scintillation counting.
(§3) At the first step, all the compounds were tested at 100 μM concentration. […] For SNX14 and SNX2, the relative efficacy of inhibition was CDK1>CDK2˜CDK3>CDK6. For SNX9 and SNX9-1, the order was CDK3>CDK1>CDK2>CDK6 (FIG. 12).

CDK3/cyclinE (h) = target: T2, CDK3/cyclinE (h) (Homo sapiens, UniProt Q00526); assay: Cyclin/CDK kinase assay (Upstate), CDK3/cyclinE; assay type: biochemical; conditions: 100 μM, re-tested at 20 and 40 μM (SNX9, SNX2) or 10 and 20 μM (SNX9-1, SNX14)
T2 construct: purchased Upstate Biotechnology, Inc
T2 sequence (Q00526 whole entry): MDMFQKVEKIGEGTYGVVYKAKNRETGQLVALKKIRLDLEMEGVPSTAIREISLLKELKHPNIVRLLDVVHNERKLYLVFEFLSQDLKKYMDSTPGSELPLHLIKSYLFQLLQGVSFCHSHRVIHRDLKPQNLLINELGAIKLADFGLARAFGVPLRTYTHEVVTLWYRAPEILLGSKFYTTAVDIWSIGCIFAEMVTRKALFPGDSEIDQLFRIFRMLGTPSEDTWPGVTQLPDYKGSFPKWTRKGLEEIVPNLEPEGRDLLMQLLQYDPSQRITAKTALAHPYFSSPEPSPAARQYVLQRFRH
T2 sequence (P24864 whole entry partner): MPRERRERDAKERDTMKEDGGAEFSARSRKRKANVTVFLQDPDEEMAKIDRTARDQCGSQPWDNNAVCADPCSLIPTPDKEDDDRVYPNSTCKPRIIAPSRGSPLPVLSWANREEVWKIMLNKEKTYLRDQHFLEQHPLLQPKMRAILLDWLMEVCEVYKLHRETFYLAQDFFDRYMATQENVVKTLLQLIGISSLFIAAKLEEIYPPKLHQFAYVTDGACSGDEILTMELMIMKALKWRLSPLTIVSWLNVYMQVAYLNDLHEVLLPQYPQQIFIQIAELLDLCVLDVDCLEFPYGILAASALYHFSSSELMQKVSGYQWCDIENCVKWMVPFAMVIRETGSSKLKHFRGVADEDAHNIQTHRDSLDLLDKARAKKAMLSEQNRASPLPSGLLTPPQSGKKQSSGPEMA
Experimental: as §1
as §2, with “CDK3/cyclinE” for “CDK1/cyclinB”, “mU)” for “μU)”, “mg/ml” for “mg/ml histone”, “200” for “45”
as §3

[1] = Range Finder Study (acute toxicity, MTD) in NCr nude mice; assay type: in vivo; conditions: for impact on White Blood Cell count, first iteration: up to 17.6 mg/kg intravenously; for impact on White Blood Cell count, second iteration / toxicity in the Range Finder Study: up to 70.4 mg/kg intravenously
Experimental: Male NCr nude mice, aged approximately 6-8 weeks were used for the study, which was carried out as a service by Taconic Biotechnology, Rensselaer, N.Y. Animals were maintained under virus free barrier conditions with continuous health monitoring. The administration of test materials, all data collection and disposal of study animals was in compliance with all relevant Taconic Biotechnology Standard Operating Procedures as well as The Guide for the Care and Use of Laboratory Animals. Study animals were observed upon arrival and daily throughout the study for overall health, behavior and morbidity. Test animals were subject to body weight measurement to determine dosage volumes of test articles.
The initial part of this analysis was a Range Finder Study, designed to evaluate acute toxicity and to identify the maximum tolerated dose (MTD) for therapeutic study. The Range Finder Study was performed twice. For the first iteration, 30 mice were injected intravenously with SNX9 and SNX9-1 in groups of 3 with phosphate buffered saline (PBS) only, 2.2 mg/kg SNX9, 4.4 mg/kg SNX9 8.8 mg/kg SNX9, 17.6 mg/kg SNX9, 80% PBS: 20% DMSO, 2.2 mg/kg SNX9-1, 4.4 mg/kg SNX9-1 8.8 mg/kg SNX9-1, 17.6 mg/kg SNX9-1. SNX9 was dissolved in PBS and SNX9-1 was dissolved in 80% PBS:20% DMSO. The volume injected per animal was approximately 0.1 ml/injection. […] All other animals appeared healthy and thrived for the duration of the 3 day period of observation, and their general health and body weight were assessed. For all the mice, there was no significant weight change (see Table 4). At the end of the 3 day observation period all the mice were euthanized and a terminal blood sample was collected via cardiac puncture. These blood samples were analyzed for complete blood count evaluation. […] A slight elevation of Red Blood Cell count was detected in approximately half of the groups, although this elevation was less than a 7% increase above the upper reference range and was not considered significant. All other blood count categories placed within the reference range.
For the second iteration, 24 mice were injected intravenously with SNX9 and SNX9-1 in groups of 3 with PBS only, 17.6 mg/kg SNX9, 35.2 mg/kg SNX9, 70.4 mg/kg SNX9, 80% PBS:20% DMSO, […] SNX9-1, 35.2 mg/kg SNX9-1, 70.4 mg/kg SNX9-1. […] All other animals were healthy for the duration of the 3 day period during which the animals were observed and their general health and body weight were assessed. For all the mice, there was no significant weight change (see Table 4). The average beginning weight for the mice in the second iteration was 23.7 g±1.73. After the 3 day observation period all the mice were euthanized and a terminal blood sample was collected via cardiac puncture. These blood samples were analyzed for complete blood count evaluation. […] A slight elevation of Red Blood Cell count was detected in approximately 7 out of eight of the groups, although this elevation was less than a 6% increase above the upper reference range and was not considered significant. All other blood count categories placed within the reference range.

[2] = tested on: HT1080-derived reporter cell line; assay: Growth inhibition and cell death in HT1080-derived reporter cell line; assay type: cell-based, human; conditions: cell death detected microscopically by cell detachment
Text: The combination of p21 and SNX9-class compounds leads to both G1 and G2/M arrest, at the levels expected for the combined effects of p21 and SNX9 (FIG. 6).

CDK6/cyclinD3 (h) = target: T3, CDK6/cyclinD3 (h) (Homo sapiens, UniProt Q00534); assay: Cyclin/CDK kinase assay (Upstate), CDK6/cyclinD3; assay type: biochemical; conditions: 100 μM, re-tested at 20 and 40 μM (SNX9, SNX2) or 10 and 20 μM (SNX9-1, SNX14)
T3 construct: purchased Upstate Biotechnology, Inc
T3 sequence (Q00534 whole entry): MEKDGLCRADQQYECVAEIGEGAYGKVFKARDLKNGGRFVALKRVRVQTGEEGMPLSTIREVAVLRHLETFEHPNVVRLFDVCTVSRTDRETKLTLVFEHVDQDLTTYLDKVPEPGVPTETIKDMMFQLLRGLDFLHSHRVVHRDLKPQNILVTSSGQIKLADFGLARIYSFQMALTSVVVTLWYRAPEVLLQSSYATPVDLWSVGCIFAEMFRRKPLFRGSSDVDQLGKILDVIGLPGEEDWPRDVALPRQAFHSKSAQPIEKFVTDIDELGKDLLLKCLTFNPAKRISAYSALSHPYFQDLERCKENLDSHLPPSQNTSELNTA
T3 sequence (P30281 whole entry partner): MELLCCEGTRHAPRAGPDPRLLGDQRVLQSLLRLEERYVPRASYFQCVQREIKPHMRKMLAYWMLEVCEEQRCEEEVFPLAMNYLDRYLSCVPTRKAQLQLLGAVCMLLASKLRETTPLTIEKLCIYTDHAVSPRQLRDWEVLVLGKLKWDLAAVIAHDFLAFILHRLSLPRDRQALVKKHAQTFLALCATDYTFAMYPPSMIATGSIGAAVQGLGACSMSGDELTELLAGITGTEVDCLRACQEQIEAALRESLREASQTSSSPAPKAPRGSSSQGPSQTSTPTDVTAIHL
Experimental: as §1
as §2, with “μl, CDK6/cyclinD3” for “μl, CDK1/cyclinB”, “(5-10 mU)” for “(5-10 μU)”, “0.2 mm” for “0.2 mM”, “mg/ml” for “mg/ml histone”, “cpm/pmol, 200” for “cpm/pmol, 45”
as §3

T1 sequence (P06493 whole entry): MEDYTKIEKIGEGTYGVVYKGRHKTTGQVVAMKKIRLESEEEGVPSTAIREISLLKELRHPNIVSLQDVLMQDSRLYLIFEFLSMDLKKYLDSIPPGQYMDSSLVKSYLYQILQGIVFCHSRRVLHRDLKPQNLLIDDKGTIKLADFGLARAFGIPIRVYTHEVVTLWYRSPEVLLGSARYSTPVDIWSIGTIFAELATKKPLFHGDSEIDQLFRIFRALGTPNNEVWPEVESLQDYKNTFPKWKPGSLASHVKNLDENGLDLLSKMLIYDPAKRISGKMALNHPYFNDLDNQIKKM
T1 sequence (P14635 whole entry partner): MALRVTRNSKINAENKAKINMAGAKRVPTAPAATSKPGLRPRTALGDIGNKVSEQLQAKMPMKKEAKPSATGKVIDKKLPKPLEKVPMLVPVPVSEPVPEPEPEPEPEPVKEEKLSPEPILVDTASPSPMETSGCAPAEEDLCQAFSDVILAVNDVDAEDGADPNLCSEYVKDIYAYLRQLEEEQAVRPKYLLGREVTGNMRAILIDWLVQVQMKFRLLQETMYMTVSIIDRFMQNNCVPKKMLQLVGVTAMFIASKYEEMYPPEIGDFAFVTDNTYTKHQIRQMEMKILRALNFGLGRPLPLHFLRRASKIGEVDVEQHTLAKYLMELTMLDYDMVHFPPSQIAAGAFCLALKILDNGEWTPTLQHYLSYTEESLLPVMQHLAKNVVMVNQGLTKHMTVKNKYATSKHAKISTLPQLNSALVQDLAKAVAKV

## NCCc1c[nH]c2c(Cl)cc(Cl)cc12 [SNX9-1]
CDK1/cyclinB (h)
  kinase activity of CDK1 (CDC2): inhibited the kinase activities
CDK3/cyclinE (h)
  kinase activity of CDK3: inhibited the kinase activities
[1]; 2.2 mg/kg (lowest dose) group of 3, intravenously, day one, apparently due to shock
  deaths, first iteration: One animal died on day one
[1]
  impact on White Blood Cell count, first iteration: neither SNX9 nor SNX9-1 had a detectable impact on White Blood Cell count
  impact on White Blood Cell count, second iteration: neither SNX9 nor SNX9-1 had a detectable impact on White Blood Cell count
  toxicity in the Range Finder Study: complete lack of toxicity
[2]
  growth inhibition of the HT1080-derived reporter cell line: associated with the induction of both cell death (as detected microscopically by cell detachment) and cell cycle arrest
CDK6/cyclinD3 (h)
  kinase activity of CDK6: inhibited the kinase activities

## Cc1[nH]c2c(Cl)cccc2c1CCN [SNX9]
CDK1/cyclinB (h)
  kinase activity of CDK1 (CDC2): inhibited the kinase activities
CDK3/cyclinE (h)
  kinase activity of CDK3: inhibited the kinase activities
[1]; 70.4 mg/kg group of 3, intravenously, shortly after dosing, likely due to shock and not compound toxicity
  deaths, second iteration: One animal died shortly after dosing
[1]
  impact on White Blood Cell count, first iteration: neither SNX9 nor SNX9-1 had a detectable impact on White Blood Cell count
  impact on White Blood Cell count, second iteration: neither SNX9 nor SNX9-1 had a detectable impact on White Blood Cell count
  toxicity in the Range Finder Study: complete lack of toxicity
[2]
  growth inhibition of the HT1080-derived reporter cell line: associated with the induction of both cell death (as detected microscopically by cell detachment) and cell cycle arrest
CDK6/cyclinD3 (h)
  kinase activity of CDK6: inhibited the kinase activities
